Test results as given in ChEMBL document CHEMBL1201862, “PubChem BioAssay data set” (2004).
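Where inhibition never reached the appropriate level, the endpoint shown equals the highest concentration tested. Otherwise, values were interpolated linearly from a five-concentration, 48-hour dose response in 96-well plates. Abbreviation: GI50, concentration required for 50% inhibition of growth.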 Activity calls are given as the source filed them. No stated cut-off is given here; in the data, active = GI50 up to about 1.1 µM and inactive = higher.

Assays:
Experiment in all cases: growth of human tumour cells (NCI), 48 h
SK-OV-3 = system: SK-OV-3
HOP-92 = system: HOP-92
CCRF-CEM = system: CCRF-CEM
SK-MEL-28 = system: SK-MEL-28
MOLT-4 = system: MOLT-4
HCT-15 = system: HCT-15
RXF 393 = system: RXF 393
OVCAR-8 = system: OVCAR-8
ACHN = system: ACHN
KM-20L2 = system: KM-20L2
SK-MEL-5 = system: SK-MEL-5
SK-MEL-2 = system: SK-MEL-2
Hs-578T = system: Hs-578T
PC-3 = system: PC-3
SNB-19 = system: SNB-19
HT-29 = system: HT-29
HCT-116 = system: HCT-116
NCI-H226 = system: NCI-H226
DLD-1 = system: DLD-1
M19-MEL = system: M19-MEL
SF-295 = system: SF-295
Malme-3M = system: Malme-3M
HOP-18 = system: HOP-18
HL-60 = system: HL-60
DU-145 = system: DU-145
SF-539 = system: SF-539
MCF7 = system: MCF7
XF498 = system: XF498
SF-268 = system: SF-268
EKVX = system: EKVX
RXF 631 = system: RXF 631
SR = system: SR
MDA-N = system: MDA-N
UO-31 = system: UO-31
LXFL 529 = system: LXFL 529
UACC-62 = system: UACC-62
BT-549 = system: BT-549
OVCAR-4 = system: OVCAR-4
K562 = system: K562
NCI-H522 = system: NCI-H522
SNB-75 = system: SNB-75
HOP-62 = system: HOP-62
U-251 = system: U-251
IGROV-1 = system: IGROV-1
HCC 2998 = system: HCC 2998
NCI-H23 = system: NCI-H23
A549 = system: A549
SN12C = system: SN12C
TK-10 = system: TK-10
KM12 = system: KM12
CAKI-1 = system: CAKI-1
UACC-257 = system: UACC-257
MDA-MB-231 = system: MDA-MB-231
M14 = system: M14
SW-620 = system: SW-620
OVCAR-3 = system: OVCAR-3
RPMI-8226 = system: RPMI-8226
T47D = system: T47D
OVCAR-5 = system: OVCAR-5
786-0 = system: 786-0
SNB-78 = system: SNB-78
A498 = system: A498
COLO 205 = system: COLO 205
LOX IMVI = system: LOX IMVI
NCI-H460 = system: NCI-H460
DMS-273 = system: DMS-273
DMS-114 = system: DMS-114

Compound: O=C1c2ccccc2C(=O)c2sc(Nc3ccccc3Cl)nc21
- GI50 (SK-OV-3): 19.5 µM (inactive)
- GI50 (HOP-92): 13.2 µM (inactive)
- GI50 (CCRF-CEM): 2.75 µM (inactive)
- GI50 (SK-MEL-28): 15.1 µM (inactive)
- GI50 (MOLT-4): 3.93 µM (inactive)
- GI50 (HCT-15): 9.38 µM
- GI50 (RXF 393): 16.4 µM (inactive)
- GI50 (OVCAR-8): 5.85 µM (inactive)
- GI50 (ACHN): 5.68 µM (inactive)
- GI50 (KM-20L2): 20.7 µM (inactive)
- GI50 (SK-MEL-5): 5.87 µM (inactive)
- GI50 (SK-MEL-2): 13.6 µM (inactive)
- GI50 (Hs-578T): 11.1 µM (inactive)
- GI50 (PC-3): 12.7 µM (inactive)
- GI50 (SNB-19): 14.5 µM (inactive)
- GI50 (HT-29): 21.5 µM (inactive)
- GI50 (HCT-116): 10.7 µM (inactive)
- GI50 (NCI-H226): 5.56 µM (inactive)
- GI50 (DLD-1): 4.68 µM (inactive)
- GI50 (M19-MEL): 1.62 µM (inactive)
- GI50 (SF-295): 16.1 µM (inactive)
- GI50 (Malme-3M): 14.2 µM (inactive)
- GI50 (HOP-18): 13.4 µM (inactive)
- GI50 (HL-60): 0.713 µM (active)
- GI50 (DU-145): 17.6 µM (inactive)
- GI50 (SF-539): 15.8 µM (inactive)
- GI50 (MCF7): 14.3 µM (inactive)
- GI50 (XF498): 16 µM (inactive)
- GI50 (SF-268): 9.29 µM (inactive)
- GI50 (EKVX): 14.3 µM (inactive)
- GI50 (RXF 631): 18 µM (inactive)
- GI50 (SR): 3.93 µM (inactive)
- GI50 (MDA-N): 2.41 µM (inactive)
- GI50 (UO-31): 10.6 µM (inactive)
- GI50 (LXFL 529): 2.27 µM (inactive)
- GI50 (UACC-62): 7.4 µM (inactive)
- GI50 (BT-549): 16 µM (inactive)
- GI50 (OVCAR-4): 8.18 µM (inactive)
- GI50 (K562): 2.8 µM (inactive)
- GI50 (NCI-H522): 3.69 µM (inactive)
- GI50 (SNB-75): 13.6 µM (inactive)
- GI50 (HOP-62): 16.7 µM (inactive)
- GI50 (U-251): 4.93 µM (inactive)
- GI50 (IGROV-1): 13.9 µM (inactive)
- GI50 (HCC 2998): 18.5 µM (inactive)
- GI50 (NCI-H23): 4.98 µM (inactive)
- GI50 (A549): 19.8 µM (inactive)
- GI50 (SN12C): 7.5 µM (inactive)
- GI50 (TK-10): 19.7 µM (inactive)
- GI50 (KM12): 15 µM (inactive)
- GI50 (CAKI-1): 4.06 µM (inactive)
- GI50 (UACC-257): 8.34 µM (inactive)
- GI50 (MDA-MB-231): 3.78 µM (inactive)
- GI50 (M14): 5.36 µM (inactive)
- GI50 (SW-620): 4.15 µM (inactive)
- GI50 (OVCAR-3): 10.7 µM (inactive)
- GI50 (RPMI-8226): 3.68 µM (inactive)
- GI50 (T47D): 11.1 µM (inactive)
- GI50 (OVCAR-5): 19.8 µM (inactive)
- GI50 (786-0): 14.6 µM (inactive)
- GI50 (SNB-78): 13.9 µM (inactive)
- GI50 (A498): 16.2 µM (inactive)
- GI50 (COLO 205): 14.6 µM (inactive)
- GI50 (LOX IMVI): 2.6 µM (inactive)
- GI50 (NCI-H460): 12.9 µM (inactive)
- GI50 (DMS-273): 13.5 µM (inactive)

Compound: COC(=O)C1=C(\O)C[C@@]2(C)CC[C@@H](C(=O)OC)C2C/C=C\1C(=O)OC (stereo partly specified)
- GI50 (SK-OV-3): > 100 µM (inactive)
- GI50 (HOP-92): > 100 µM (inactive)
- GI50 (CCRF-CEM): > 100 µM (inactive)
- GI50 (SK-MEL-28): 47 µM (inactive)
- GI50 (MOLT-4): 46.6 µM (inactive)
- GI50 (HCT-15): > 100 µM
- GI50 (RXF 393): 40.6 µM (inactive)
- GI50 (OVCAR-8): > 100 µM (inactive)
- GI50 (ACHN): > 100 µM (inactive)
- GI50 (KM-20L2): > 100 µM (inactive)
- GI50 (SK-MEL-5): 48.9 µM (inactive)
- GI50 (SNB-19): > 100 µM (inactive)
- GI50 (HT-29): > 100 µM (inactive)
- GI50 (HCT-116): 66.1 µM (inactive)
- GI50 (NCI-H226): 89.1 µM (inactive)
- GI50 (DLD-1): > 100 µM (inactive)
- GI50 (M19-MEL): > 100 µM (inactive)
- GI50 (SF-295): > 100 µM (inactive)
- GI50 (Malme-3M): > 100 µM (inactive)
- GI50 (HOP-18): > 100 µM (inactive)
- GI50 (HL-60): 49.5 µM (inactive)
- GI50 (SF-539): 19.7 µM (inactive)
- GI50 (SF-268): 70.5 µM (inactive)
- GI50 (EKVX): > 100 µM (inactive)
- GI50 (RXF 631): > 100 µM (inactive)
- GI50 (SR): 81.3 µM (inactive)
- GI50 (UO-31): 64 µM (inactive)
- GI50 (LXFL 529): 62.2 µM (inactive)
- GI50 (UACC-62): > 100 µM (inactive)
- GI50 (OVCAR-4): > 100 µM (inactive)
- GI50 (NCI-H522): > 100 µM (inactive)
- GI50 (SNB-75): > 100 µM (inactive)
- GI50 (HOP-62): > 100 µM (inactive)
- GI50 (U-251): > 100 µM (inactive)
- GI50 (IGROV-1): > 100 µM (inactive)
- GI50 (HCC 2998): > 100 µM (inactive)
- GI50 (A549): 87.7 µM (inactive)
- GI50 (SN12C): 24.1 µM (inactive)
- GI50 (TK-10): > 100 µM (inactive)
- GI50 (KM12): > 100 µM (inactive)
- GI50 (CAKI-1): > 100 µM (inactive)
- GI50 (UACC-257): 72.8 µM (inactive)
- GI50 (M14): > 100 µM (inactive)
- GI50 (SW-620): > 100 µM (inactive)
- GI50 (OVCAR-3): > 100 µM (inactive)
- GI50 (RPMI-8226): 50.1 µM (inactive)
- GI50 (OVCAR-5): 46.3 µM (inactive)
- GI50 (786-0): > 100 µM (inactive)
- GI50 (SNB-78): > 100 µM (inactive)
- GI50 (A498): 23 µM (inactive)
- GI50 (COLO 205): > 100 µM (inactive)
- GI50 (LOX IMVI): > 100 µM (inactive)
- GI50 (NCI-H460): > 100 µM (inactive)
- GI50 (DMS-114): 29.4 µM (inactive)
- GI50 (DMS-273): > 100 µM (inactive)
